Legend:
ovine COX-2 = target: T1, ovine COX-2 (Ovis aries, UniProt P79208); experiment: Cyclooxygenase-2 inhibition study; type: biochemical
T1 construct: purchased Cayman (USA)
T1 sequence (P79208 17-603): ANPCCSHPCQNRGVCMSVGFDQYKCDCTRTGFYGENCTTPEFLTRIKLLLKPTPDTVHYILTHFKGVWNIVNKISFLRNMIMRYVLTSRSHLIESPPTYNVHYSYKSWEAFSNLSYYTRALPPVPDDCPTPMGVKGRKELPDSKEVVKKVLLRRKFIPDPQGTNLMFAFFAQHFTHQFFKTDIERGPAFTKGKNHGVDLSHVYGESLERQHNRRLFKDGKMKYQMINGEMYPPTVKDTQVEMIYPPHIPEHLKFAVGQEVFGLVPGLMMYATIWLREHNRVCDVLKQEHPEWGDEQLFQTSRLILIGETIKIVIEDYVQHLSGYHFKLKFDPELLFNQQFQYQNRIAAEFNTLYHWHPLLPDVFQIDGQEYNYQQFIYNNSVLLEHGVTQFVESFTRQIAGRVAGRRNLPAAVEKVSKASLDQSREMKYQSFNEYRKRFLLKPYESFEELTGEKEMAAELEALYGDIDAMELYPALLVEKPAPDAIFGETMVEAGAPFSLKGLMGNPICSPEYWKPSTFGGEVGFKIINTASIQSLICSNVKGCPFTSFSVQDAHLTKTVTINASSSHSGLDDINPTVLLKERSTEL
Protocol: The in vitro study of cyclooxygenase (COX) activity was determined by using arachidonic acid (AA) as the substrate and N,N,N’,N’-tetramethylphenylenediamine (TMPD) as the co-substrate. […] The absorption due to the spontaneous oxidation of TMPD was subtracted from the initial rate of oxidation observed in the presence of AA. […] A blank determination was used first to serve as a negative control. Indomethacin was used as a reference COX-2 inhibitor (positive control).
The role of COX-2 in neurodegenerative diseases has been reported, and COX-2 inhibition is considered of high importance as a therapeutic tool. The designed derivatives were tested for their COX-2 inhibition activity on the ovine COX-2 enzyme. […] Indomethacin was used as a reference compound.

[1] = cited from earlier work
[2] = target: T2, soybean lipoxygenase (LOX-1) (Glycine max, UniProt P08170); conditions: % inhibition at 100 µM; cited from earlier work
T2 construct: purchased Sigma Chemical, Co. (St Louis, MO, USA)
T2 sequence (P08170 1-839): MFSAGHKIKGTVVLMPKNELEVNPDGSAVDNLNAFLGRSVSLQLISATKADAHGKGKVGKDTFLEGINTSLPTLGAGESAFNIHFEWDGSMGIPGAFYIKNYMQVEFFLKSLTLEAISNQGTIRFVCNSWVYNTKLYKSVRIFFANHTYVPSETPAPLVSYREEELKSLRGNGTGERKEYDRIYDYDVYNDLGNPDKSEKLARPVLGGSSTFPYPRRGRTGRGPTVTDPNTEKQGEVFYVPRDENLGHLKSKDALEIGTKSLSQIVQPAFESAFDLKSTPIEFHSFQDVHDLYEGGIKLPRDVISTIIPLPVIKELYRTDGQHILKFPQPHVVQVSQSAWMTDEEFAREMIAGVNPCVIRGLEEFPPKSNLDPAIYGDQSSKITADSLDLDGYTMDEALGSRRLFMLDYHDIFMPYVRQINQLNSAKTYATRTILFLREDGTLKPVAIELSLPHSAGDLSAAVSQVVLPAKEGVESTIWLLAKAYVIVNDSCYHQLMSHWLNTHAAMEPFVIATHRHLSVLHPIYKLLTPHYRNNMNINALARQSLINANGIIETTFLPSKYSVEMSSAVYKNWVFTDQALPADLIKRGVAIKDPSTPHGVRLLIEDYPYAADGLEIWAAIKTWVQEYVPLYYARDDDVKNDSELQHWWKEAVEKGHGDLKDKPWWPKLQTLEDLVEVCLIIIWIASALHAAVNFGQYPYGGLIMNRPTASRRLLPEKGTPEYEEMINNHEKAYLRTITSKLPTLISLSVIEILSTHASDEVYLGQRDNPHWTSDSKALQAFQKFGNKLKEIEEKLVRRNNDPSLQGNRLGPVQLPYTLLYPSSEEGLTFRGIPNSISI

inhibition at 100 µM (ovine COX-2): 9%
SMILES: O=C(O)/C=C/C=C/c1ccccc1 [Compound 23]
AAPH inhibition (%, at 100 µM) [1]: 30% | LOX inhibition (%) [2]: 24%

Reference: paper PMC11348465, “Pharmacochemical Study of Multitarget Amino Acids’ Hybrids: Design, Synthesis, In vitro, and In silico Studies” (Medicinal Chemistry (Shariqah (United Arab Emirates), 2024)
